≈ marks a conversion by molar mass, not a printed value.
Tests used:
human IRAK4 = human IRAK4 (Homo sapiens (Human), UniProt Q9NWZ3); assay: IRAK4 enzymatic assay (Transcreener fluorescence polarization, ADP detection); assay type: biochemical; settings: recombinant full-length IRAK4; 125 uM ATP; 90 min
Method: Compounds were assayed for inhibition of human IRAK4 and IRAK1 catalytic activity using recombinant enzyme produced from insect cells. Full-length IRAK4 protein, carrying an N-terminal His6-Tag, was obtained from Life Technologies (Carlsbad, Calif., USA). The IRAK1 construct was produced internally and was comprised of IRAK1 residues Arg194 to Ser712, preceded by an NH2-terminal His6 tag and the coding sequence for glutathione-S-transferase.
Kinase activities were assayed using the Transcreener-Fluorecescence polarization platform (BelBrook Labs, Madison, Wis., USA) that measures amounts of the reaction product, ADP. […] Final IRAK4 assay conditions were 1.25 nM IRAK4; 125 uM ATP; 10 uM MgC2; 125 uM peptide in reaction buffer (25 mM HEPES (pH7.4); 2 mM Dithiothreitol; 0.015% Brij-35; and 0.5% dimethyl sulfoxide. The IRAK1 activity was optimized similarly, yielding final assay conditions of […] IRAK1; 62.5 uM ATP; 5 uM MgCl2, and 62.5 uM IRAK1 peptide in reaction buffer for 60 min.
Assays of compounds for kinase inhibition were performed using inhibitors serially-diluted in dimethyl sulfoxide, which was accomplished with a LabCyte Echo 555 liquid dispenser. 384 well assay plates spotted with compound received 4 ul of a 2× substrate (ATP+peptide) mix in reaction buffer, followed by 4 ul of 2× enzyme diluted in reaction buffer. Reactions were halted at 60 (IRAK1) or 90 (IRAK4) min by addition of 6 ul of detection buffer, containing EDTA ([…] final concentration), 0.95 ug of the ADP-binding antibody ADP2, ADP tracer (3 nM final concentration), and […] HEPES. Following a 1 hr incubation, fluorescence polarization of the ADP2-antibody::TRACER complex was read on a Tecan M1000 plate reader using a 635/20 excitation filter in combination with a 670/20 emission filter. Delta milli-P values were analyzed using Genedata software to fit dose-response curves and compute compound Ki values, using ATP Km values of 642 um and 83.2 uM for IRAK4 and IRAK1, respectively. Table 3 provides IRAK4 Ki values for representative compounds of the present invention.

Kinetic solubility assay = assay type: physicochemical; settings: for solubility kinetic at 24 h: PBS buffer with 2% DMSO, aqueous buffer, kinetic from dmso stock, PBS buffer pH 7.4, 2% DMSO, 24 hours shaking at room temperature, UHPLC-CLND; for Fold improvement in kinetic solubility: example compound versus its matched pair phenyl compound
Method: The kinetic solubility assay started with compound DMSO stock solutions. This assay used Millipore Multiscreen 96-well filter plates for the 24 hour equilibration shaking. Samples were prepared by adding 4 μL of the 10 mM compound DMSO stock solutions into 196 μL of PBS buffer pH 7.4 in the 96-well filter plates, yielding a compound concentration of 200 μM and 2% DMSO. The filter plate was sealed with aluminum sealing film and shaken at room temperature for 24 hours at 1000 rpm. When shaking has completed, the solutions were filtered into a clean 96-well plate utilizing a vacuum manifold. After filtration, some precipitate is often observed at the bottom of the filtration plate wells. Most of the precipitates appear to be crystalline under a polarizing light microscope. The filtrate samples were diluted by a factor of 2 using PBS pH7.4 buffer and then transferred to a 384-well plate for analysis by UHPLC-CLND (CLND: Chemiluminescence nitrogen detector). 5 μL of each sample was injected twice into the UHPLC-CLND for two repeat analysis.
Samples were detected and analyzed using UV 254 nm and CLND. UV 254 nm is used primarily to confirm the sample purity but in rare cases, is also used to quantify the concentration of compounds with no nitrogens, where additional work is done to create a compound specific calibration curve. The identification of CLND target peaks of each compound were confirmed by LCMS. Sample quantification was accomplished by CLND peak intensity, the calibration curve, and the number of nitrogen contained in the compound. One calibration curve of caffeine was used for solubility quantitative determination. A fresh calibration curve was created for every batch. The number of nitrogens in a compound used for this quantification was corrected for the actual configuration of the nitrogen in the compound.

[1] = Plasma protein binding using rapid equilibrium dialysis (RED); assay type: in vitro ADME; settings: pH 7.4, human plasma, 37° C., read-out: Human PPB (converted)
Method: Plasma protein binding was measured in duplicate using rapid equilibrium dialysis (RED) device ((Thermo Scientific Pierce) in a 96-well format. Briefly, 10.0 μL drug or control compounds (0.5 mM in DMSO) was mixed with 1000 μL plasma (pH adjusted to 7.4) from various species (BioreclamationIVT). Aliquots of 300 μL drug/plasma mixture were placed into the donor side chamber of a single-use RED plate, and 500 μL aliquots of PBS buffer were placed into the adjacent chamber as the receiver side. The plate was incubated on an orbital shaker at 400 rpm, at 37° C. for 4 hours. After completion of incubation, 50 μL aliquots from the PBS buffer side were mixed with 5 μL of blank plasma matrix, and 5 μL from the donor side (plasma) were mixed with 50 μL blank PBS buffer. All samples were then crashed with 200 μL acetonitrile (containing internal standard) to precipitate plasma proteins. The samples were centrifuged at 3750 rpm for 10 min to pellet the proteins. The supernatants were carefully transferred to a fresh 96-well plate, and diluted with an equivalent volume of water. The samples were then analyzed by LC-MS/MS (ABI 4000, ABI Sciex). Data acquisition and processing was performed with Analyst 1.6.1 and Multiquant 2.1. The percent of protein binding and fraction unbound (fu) in matrix was calculated from taking the ratio of responses (peak areas) on the receiver side (buffer) to those on the donor side (plasma). The ratios were normalized to the internal standard.

Chain of human IRAK4 (Q9NWZ3 whole entry, the tested form may be a part): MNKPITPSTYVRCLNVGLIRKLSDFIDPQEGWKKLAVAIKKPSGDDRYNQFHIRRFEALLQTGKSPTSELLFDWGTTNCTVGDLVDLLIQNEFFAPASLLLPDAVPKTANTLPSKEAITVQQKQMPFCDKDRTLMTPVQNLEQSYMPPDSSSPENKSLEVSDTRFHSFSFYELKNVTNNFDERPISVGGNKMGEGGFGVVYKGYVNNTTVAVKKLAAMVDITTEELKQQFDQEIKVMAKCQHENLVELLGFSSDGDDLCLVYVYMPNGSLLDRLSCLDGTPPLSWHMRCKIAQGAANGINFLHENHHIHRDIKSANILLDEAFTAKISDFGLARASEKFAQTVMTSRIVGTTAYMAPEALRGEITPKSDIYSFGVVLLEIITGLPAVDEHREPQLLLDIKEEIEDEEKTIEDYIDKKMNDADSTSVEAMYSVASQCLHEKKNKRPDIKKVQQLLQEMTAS

Row | SMILES | Ki (human IRAK4) [nM] | solubility kinetic at 24 h (Kinetic solubility assay) [µM] | Fold improvement in kinetic solubility (Kinetic solubility assay) | fraction unbound at 4 h, 5 µM [1]
1 | C[C@]1(O)COc2nc(N3CCN(CC(F)F)CC3)c(NC(=O)c3cnn4cccnc34)cc2C1 (stereo in doubt) [Example 18, N-[rac-(3R)-7-[4-(2,2-difluoroethyl)piperazin-l-yl]-3-hydroxy-3-methyl-2,4-dihydropyrano[2,3-b]pyridin-6-yl]pyrazolo[1,5-a]pyrimidine-3-carboxamide] | 210 | 167 (≈ 79.1 µg/mL) | 12.8 | –
2 | C[C@@]1(O)COc2nc(N3CCN(CC(F)F)CC3)c(NC(=O)c3cnn4cccnc34)cc2C1 (stereo in doubt) [Example 19, N-[rac-(3S)-7-[4-(2,2-difluoroethyl)piperazin-l-yl]-3-hydroxy-3-methyl-2,4-dihydropyrano[2,3-b]pyridin-6-yl]pyrazolo[1,5-a[pyrimidine-3-carboxamide] | 31 | 177 (≈ 83.8 µg/mL) | 31.6 | –
3 | C[C@@]1(CO)Cc2cc(NC(=O)c3cnn4cccnc34)c(N3CCN(CC(F)F)CC3)nc2O1 (stereo in doubt) [Example 20, N-[rac-(2S)-6-[4-(2,2-difluoroethyl)piperazin-l-yl]-2-(hydroxymethyl)-2-methyl-3H-furo[2,3-b]pyridin-5-yl]pyrazolo[1,5-a]pyrimidine-3-carboxamide] | 9.1 | – | – | –
4 | C[C@]1(CO)Cc2cc(NC(=O)c3cnn4cccnc34)c(N3CCN(CC(F)F)CC3)nc2O1 (stereo in doubt) [Example 21, N-[rac-(2R)-6-[-(2,2-difluoroethyl)piperazin-l-yl]-2-(hydroxymethyl)-2-methyl-3H-furo[2,3-b]pyridin-5-yl]pyrazolo[1,5-a]pyrimidine-3-carboxamide] | 13 | 124 (≈ 58.7 µg/mL) | 27.0 | 0.363
5 | CC1(C)Cc2cc(NC(=O)c3cnn4cccnc34)c(N3CCOCC3)nc2O1 [Example 1, N-(2,2-dimethyl-6-morpholino-2,3-dihydrofuro[2,3-b]pyridin-5-yl)pyrazolo[1,5-a]pyrimidine-3-carboxamide] | 39 | 166 (≈ 65.5 µg/mL) | 166.0 | 0.143
6 | CC1(C)Cc2cc(NC(=O)c3cnn4cccnc34)c(N3CCC(CO)CC3)nc2O1 [Example 2, N-(6-(4-(Hydroxymethyl)piperidin-1-yl)-2,2-dimethyl-2,3-dihydrofuro[2,3-b]pyridin-5-yl)pyrazolo[1,5-a]pyrimidine-3-carboxamide] | 4.2 | – | – | 0.074
7 | Cc1cnc2c(C(=O)Nc3cc4c(nc3N3CCC(CO)CC3)OC(C)(C)C4)cnn2c1 [Example 3, N-(6-(4-(Hydroxymethyl)piperidin-1-yl)-2,2-dimethyl-2,3-dihydrofuro[2,3-b]pyridin-5-yl)-6-methylpyrazolo[1,5-a]pyrimidine-3-carboxamide] | 4.1 | 7.5 (≈ 3.27 µg/mL) | 7.5 | –
8 | CC1(C)Cc2cc(NC(=O)c3cnn4cccnc34)c(N3CCN(CCO)CC3)nc2O1 [Example 4, N-(6-(4-(2-Hydroxyethyl)piperazin-1-yl)-2,2-dimethyl-2,3-dihydrofuro[2,3-b]pyridin-5-yl)pyrazolo[1,5-a]pyrimidine-3-carboxamide] | 33 | – | – | –
9 | CC1(C)Cc2cc(NC(=O)c3cnn4cccnc34)c(N3CCC(F)(CO)CC3)nc2O1 [Example 5, N-[6-[4-Fluoro-4-(hydroxymethyl)-1-piperidyl]-2,2-dimethyl-3H-furo[2,3-b]pyridin-5-yl]pyrazolo[1,5-a]pyrimidine-3-carboxamide] | 5.6 | 112 (≈ 49.3 µg/mL) | 43.1 | –

Next, values leading:

Row | Ki (human IRAK4) [nM] | solubility kinetic at 24 h (Kinetic solubility assay) [µM] | Fold improvement in kinetic solubility (Kinetic solubility assay) | fraction unbound at 4 h, 5 µM [1] | SMILES
10 | 2400 | – | – | – | CC1(C)Cc2cc(NC(=O)c3cnn4cccnc34)c(N3CCOC[C@H]3CO)nc2O1 (single isomer, unassigned) [Example 7]
11 | 820 | – | – | – | CC1(C)Cc2cc(NC(=O)c3cnn4cccnc34)c(N3CCOC[C@@H]3CO)nc2O1 (single isomer, unassigned) [Example 8]
12 | 45 | 137 (≈ 56.2 µg/mL) | – | – | C[C@@]1(CO)Cc2cc(NC(=O)c3cnn4cccnc34)c(N3CCOCC3)nc2O1 (single isomer, unassigned) [Example 11]
13 | 91 | – | – | – | CC(C)(O)[C@]1(C)Cc2cc(NC(=O)c3cnn4cccnc34)c(N3CCOCC3)nc2O1 (single isomer, unassigned) [Example 13]
14 | 48 | – | – | – | CC(C)(O)[C@@]1(C)Cc2cc(NC(=O)c3cnn4cccnc34)c(N3CCOCC3)nc2O1 (single isomer, unassigned) [Example 14]
15 | 6.6 | – | – | – | Cc1cnc2c(C(=O)Nc3cc4c(nc3N3CCN(CC(N)=O)CC3)O[C@](C)(CO)C4)cnn2c1 (single isomer, unassigned) [Example 15]
16 | 5.5 | – | – | – | Cc1cnc2c(C(=O)Nc3cc4c(nc3N3CCN(CC(N)=O)CC3)O[C@@](C)(CO)C4)cnn2c1 (single isomer, unassigned) [Example 16]
17 | 88 | 159 (≈ 65.3 µg/mL) | 15.9 | – | CC1(CO)Cc2cc(NC(=O)c3cnn4cccnc34)c(N3CCOCC3)nc2O1 (stereo in doubt) [Example 10, (S)—N-(2-(Hydroxymethyl)-2-methyl-6-morpholino-2,3-dihydrofuro[2,3-b]pyridin-5-yl)pyrazolo[1,5-a]pyrimidine-3-carboxamide]
18 | – | – | 13.7 | – | CC1(CO)Cc2cc(NC(=O)c3cnn4cccnc34)c(N3CCOCC3)nc2O1 (stereo in doubt) [Example 11, (R)—N-(2-(hydroxymethyl)-2-methyl-6-morpholino-2,3-dihydrofuro[2,3-b]pyridin-5-yl)pyrazolo[1,5-a]pyrimidine-3-carboxamide]
19 | 540 | 39 (≈ 15.3 µg/mL) | 5.7 | – | CN1Cc2cc(NC(=O)c3cnn4cccnc34)c(N3CCOCC3)nc2C1=O [Example 12, N-(6-Methyl-2-morpholino-7-oxo-6,7-dihydro-5H-pyrrolo[3,4-b]pyridin-3-yl)pyrazolo[1,5-a]pyrimidine-3-carboxamide]
20 | 6.4 | – | – | – | CC1(C)Cc2cc(NC(=O)c3cnn4cccnc34)c(OCC3CC3)nc2O1 [Example 17, N-[6-(cyclopropylmethoxy)-2,2-dimethyl-3H-furo[2,3-b]pyridin-5-yl]pyrazolo[1,5-a]pyrimidine-3-carboxamide]
